Patent US6387907B1, “Use of serotonin agonists to alleviate disordered breathing episodes in a mammal” (The Trustees of the University of Pennsylvania, priority 1997, dated 2002)

How the values were obtained:
Type in all cases: in vivo, English bulldog
English bulldogs [1] = assay: Upper airway dilator muscle (GH, SH) EMG activity during wakefulness after i.v. serotonin antagonist; conditions: mean±SE; for GH peak amplitude, mean: baseline 11.86±2.17; for SH amplitude: baseline 14.41±3.93
Source text: Following the baseline sleep study to document sleep-disordered breathing, each dog underwent a surgical procedure for the implantation of recording electrodes. For this procedure, dogs were premedicated with 5 to 10 micrograms per kilogram body weight atropine sulfate intramuscularly. In the cases of two bulldogs experiencing severe sleep-disordered breathing, intubation and general anesthesia were thought to pose a significant risk for postoperative respiratory failure. These two dogs were therefore sedated only using 20 to 40 micrograms per kilogram body weight oxymorphone administered intramuscularly. The six remaining dogs were anesthetized initially with sodium thiopental (15 to 30 milligrams per kilogram body weight) administered intravenously. The dogs were intubated and maintained under general anesthesia using 0.5 to 2.5% (v/v) inhalational halothane throughout the procedure.
Recording electrodes were implanted for the study of diaphragm and upper airway dilator muscle activity. Electrodes were fashioned from 0.7 millimeter multi-stranded Teflon-coated stainless steel wire. The insulation was stripped from 5 to 8 millimeters at the proximal tip. The proximal tip of each electrode was implanted transcutaneously into the relevant musculature using methods described by Basmajian et al. (1962, J. Appl. Physiol. 17:839).
(§1) Five diaphragm electromyographic (DIA EMG) electrodes were implanted in the costal musculature of the right hemidiaphragm 7 to 9 centimeters lateral to the xyphoid process. Three other electrodes were embedded into the right sternohyoid (SH) muscle and, three more were embedded into the right geniohyoid (GH) muscle. Both SH and GH muscles are readily palpable in the English bulldog.
Two ground electrodes were embedded transcutaneously contacting both the occipital skull and dorsal neck musculature. Distal tips of all electrodes were soldered onto a 25-pin Winchester-type connector. Electrodes and the connector were secured to each dog with elastic adhesive dressings over the torso and neck.
(§2) All studies were conducted using an unrestrained dog, either housed within a well-ventilated, electronically shielded, clear Plexiglass™ recording chamber or seated atop a table in the recording room. In either case, an investigator remained with the dog throughout the study to observe the dog's head and neck movements and to document the behavioral state of the dog. EMG signals were band-pass filtered at 50 to 2,000 Hertz. DIA EMG signals were passed through an analog EKG blanker (CWE EKG blanker; CWE, Ardmore, Pa.) and then through a third-order Paynter filter (CWE MA) having a 100-millisecond time constant to obtain a moving average of the DIA EMG. Signals of the SH and GH EMG were also passed through Paynter filters with the same time constants (100 ms) to obtain moving averages of these signals. Oxyhemoglobin saturation was measured continuously with a Biox IIA oximeter attached to the dog's pinna. Signals for the GH EMG, GH moving average (MA), SH EMG, SH MA, DIA EMG, DIA MA, and oxyhemoglobin saturations were recorded polygraphically (10 millimeters per second) using a chart recorder with high frequency response, i.e., as much as 10 kHz (Gould ES1000; Gould Instruments, Cleveland, Ohio). Signals were also recorded on analog tape using an eight-channel FM tape recorder (A. R. Vetter, Roseburg, Pa.).
The effects of serotonin antagonists on upper airway dilator muscle activity and breathing during wakefulness were assessed. Serotonin antagonists which were administered were methysergide maleate and ritanserin.
Ritanserin is a relatively selective serotonin antagonist at types 1C and 2 serotonin receptors (Devaud et al., 1992, J. Neurochem. 59:1459-1466). Ritanserin was selected for study on the basis that the IC and 2 subtypes of serotonin receptors appear to be involves in serotonin facilitation of hypoglossal motoneurons in vivo (Kugin et al., supra). […]

English bulldogs [2] = assay: Respiratory timing from DIA moving average signals
Source text: Respiratory timing variables were obtained from the DIA MA signals, using methods previously described to determine inspiratory time (T1), expiratory time (TE), total time of a respiratory burst (Ttot), and the duty cycle ratio (T1/Ttot) (Hendricks et al., 1987, J. Appl. Physiol. 63:1344-1350; Hendricks et al., 1991, Am Rev. Respir. Dis. 144:1112-1120).

English bulldogs [3] = assay: Direct observation of behavior after serotonin antagonists; conditions: i.v. during quiet wakefulness; several dogs
Source text: The behavior of the dogs was observed directly throughout this study and for several hours following the last injection by one investigator seated adjacent the dog. The investigator documented both behavioral state and movement and helped the dog to maintain wakefulness throughout the study.

English bulldogs [4] = assay: Diaphragm (DIA) EMG activity during wakefulness after i.v. serotonin antagonist
Method: as §1, §2
(§3) After obtaining baseline recordings of all variables for at least 5 minutes during quiet wakefulness and after obtaining recordings during the 5 minutes following administration of a saline control injection, 0.25 to 0.50 milligrams per kilogram body weight of one of the serotonin antagonists was administered to each dog through a peripheral intravenous line. All variables were continuously recorded. Injections were repeated every 6 minutes either until a total dose of 1 milligram per kilogram body weight had been administered or until the oxygen saturations fell below 85%. These limits were deemed to ensure the dogs' safety, based on an initial study using one dog. This dog, EBD-G was hypoxic at baseline and developed profound reductions in UAW muscle activity with desaturations to 75% after a total dose of 1.0 milligram per kilogram body weight of methysergide. The interval between repeated injections was selected to be 6 minutes to allow for 5 minute sampling periods for each dose. The duration of action of serotonin antagonists is known to be greater than 60 minutes (Bredberg et al., supra; Devaud et al., supra).
The effects of serotonin antagonists on diaphragm activity were similarly analyzed. Briefly, the measures of diaphragm activity were the peak amplitudes for all respiratory bursts in each condition. […] Acquisition of these measures has also been previously described (Hendricks et al., 1991, Am. Rev. Respir. Dis. 144:1112-1120). Mean values across all respiratory bursts of a 5 minute sample period were determined for each dog, and these values were used to perform repeated measures of ANOVA comparing baseline values with post-administration values.

English bulldogs [5] = assay: Waking oxyhemoglobin saturation (SaO2) after i.v. serotonin antagonist; conditions: for mean SaO2: mean±SE
Method: as §2, §3
The effects of ritanserin and methysergide on oxyhemoglobin saturations were analyzed in a similar fashion; i.e., repeated measures of ANOVA for baseline and drug dose conditions. Oxyhemoglobin saturation was measured every 10 scans.

English bulldogs [6] = assay: Cine CT imaging of the upper airway before and after ritanserin; conditions: 0.5 mg/kg i.v.
Method: The effect of administering a serotonin antagonist on upper airway dimensions during a respiratory cycle was determined by performing cinematic computed tomography (cine CT) on dogs before and after administration of the antagonists. Cine CT allows both high spatial and temporal resolution (Shepard et al., 1990, In: Proceedings of the First International Symposium on Sleep and Respiration, New York, 273-282; Schwab et al., 1993, Am. Rev. Respir. Dis. 148:1385-1400), and has been used to define dynamic changes in the upper airways of humans in relation to the phases of the respiratory cycle (Schwab et al., 1993, Am. Rev. Respir. Dis. 148:1385-1400; Galvin et al., 1989, Radiology 171:775-778; Schwab et al., 1993, J. Appl. Physiol. 74:1504-1514). An Imatron C-100 ultrafast scanner (Imatron Inc., South San Francisco, Calif.) was used for these studies.
Dogs were studied during wakefulness. All dogs were trained prior to the study to lie quietly on a table similar to the CT scanner table for periods as long as one hour. However, to maintain constant head and body position throughout the study, each dog wore a nylon vest secured to the table at the shoulder and hips. Lateral radiographs of the neck were performed initially so that the head and neck were positioned with a 110 to 130 degree angle between the hard palate and the upper trachea.
Once the angle was confirmed, the head was gently secured in place to the scanner table with elastic dressing tape. With the dog comfortably secured in place, a scout filming of the airways was performed with 40 consecutive 3-millimeter-thick coronal slices imaged from the region of the nasopharynx through the larynx. For each dog, these images were used to select four standard areas of study for all dogs. […] For each dog, the areas which were imaged included the posterior nasopharynx (at the level of pterygoid fossa in the dog), the retropalatal high area (at the midhyoid arch level), the retropalatal low area (at the level of the anterior hyoid bone), and the larynx.
Prior to imaging, each dog was connected as described above for monitoring geniohyoid, sternohyoid, and diaphragm muscle activity, respiratory inductive plethysmography, and oxyhemoglobin saturation. During quiet breathing, 20 consecutive images at 0.4-second intervals were obtained simultaneously at each of the four described levels. This program allowed for the description of the dynamic changes in airway dimensions over four to seven breaths at all four anatomic levels simultaneously. The image acquisition time for each radiograph was 50 milliseconds, and images were 3 millimeters thick. Imaging studies were rejected and repeated if the respiratory activity was interrupted at any time during imaging by swallowing, sighing (defined for this study as a diaphragm burst 200% greater in amplitude than the previous 10 bursts), licking, or panting, the latter being defined as a respiratory frequency of more than 60 diaphragmatic respiratory bursts per minute. Cine CT scanner impulses marking the timing for all images were transmitted to the polygraph with continuing signals of all objective measures, i.e., GH, SH, and DIA EMG activity, oxyhemoglobin saturation, and chest wall plethysmography. […]
This study quantified the effects of the serotonin antagonist, ritanserin, on the cross-sectional area of the upper airway and its dynamic changes during the respiratory cycle. […]

[7] = 0.50 mg/kg i.v., baseline ritanserin 14.41±3.93, methysergide 5.75±0.18
[8] = 0.50 mg/kg i.v., mean±SE, baseline ritanserin 17.63±2.79, methysergide 7.07±2.37
[9] = 0.50 mg/kg i.v., baseline ritanserin 92.1±0.6, methysergide 90.3±2.7

Structure (SMILES): CC[C@@H](CO)NC(=O)[C@@H]1C=C2c3cccc4c3c(cn4C)C[C@H]2N(C)C1 [methysergide]
- SH peak amplitude (English bulldogs [1]; [7]): 3.83±0.28 arbitrary units
- SH peak amplitude (English bulldogs [1]; 1.00 mg/kg i.v. cumulative, four dogs, baseline 5.75±0.18): 2.77±0.38 arbitrary units
- TE reduced by (English bulldogs [2]; 0.50 mg/kg, three dogs): 33.8%
- TI reduced by (English bulldogs [2]; 0.50 mg/kg, three dogs): 12.7%
- Ttot reduced by (English bulldogs [2]; 0.50 mg/kg, three dogs): 23.9%
- behavior (head and neck movements, alertness) (English bulldogs [3]): increase in staring behaviors
- DIA peak amplitude as percentage of the baseline value (English bulldogs [4]; 0.50 mg/kg i.v.): 67.7%
- DIA peak amplitude, mean (English bulldogs [4]; [8]): 4.74±0.25 arbitrary units
- DIA peak amplitude as percentage of the baseline value (English bulldogs [4]; 1.0 mg/kg i.v. cumulative): 39.6%
- DIA peak amplitude, mean (English bulldogs [4]; 1.0 mg/kg i.v. cumulative, mean±SE, three dogs, baseline 7.07±2.37): 2.80±1.48 arbitrary units
- mean SaO2 (English bulldogs [5]; [9]): 86.6±2.0%
- mean SaO2 (English bulldogs [5]; 1.0 mg/kg i.v. cumulative, baseline 90.3±2.7): 85.6±0.9%
- oxygen desaturations in dog EBD-G (hypoxic at baseline) (English bulldogs [5]; total dose 1.0 mg/kg i.v., single dog, initial study): 75%

Structure (SMILES): Cc1nc2sccn2c(=O)c1CCN1CCC(=C(c2ccc(F)cc2)c2ccc(F)cc2)CC1 [ritanserin]
- GH peak amplitude, mean (English bulldogs [1]; 0.25 mg/kg i.v., four dogs): 6.42±1.12 arbitrary units
- SH amplitude (English bulldogs [1]; 0.25 mg/kg i.v.): 10.90±2.99 arbitrary units
- percent suppression of GH activity (English bulldogs [1]; 0.25 mg/kg i.v., quiet waking): 40.0±6.5%
- GH peak amplitude, mean (English bulldogs [1]; 0.50 mg/kg i.v. cumulative, four dogs): 7.23±2.01 arbitrary units
- SH peak amplitude (English bulldogs [1]; [7]): 9.08±1.32 arbitrary units
- GH peak amplitude, mean (English bulldogs [1]; 0.75 mg/kg i.v. cumulative, four dogs): 7.44±2.48 arbitrary units
- SH amplitude (English bulldogs [1]; 0.75 mg/kg i.v. cumulative): 7.43±0.55 arbitrary units
- TI/Ttot (duty cycle ratio) (English bulldogs [2]; 0.25 mg/kg, mean±SE, six dogs, baseline 0.50±0.02, NS): 0.52 ± 0.02
- TI (inspiratory time) (English bulldogs [2]; 0.25 mg/kg, mean±SE, six dogs, baseline 1.31±0.20, p 0.02): 1.03 ± 0.17 s
- TE (expiratory time) (English bulldogs [2]; 0.25 mg/kg, mean±SE, six dogs, baseline 1.32±0.20, p 0.04): 1.00 ± 0.23 s
- Ttot (total time of a respiratory burst) (English bulldogs [2]; 0.25 mg/kg, mean±SE, six dogs, baseline 2.60±0.30, p 0.03): 2.02 ± 0.30 s
- GH peak amplitude suppressed by (English bulldogs [6]; mean values for the two dogs): 51.1±1.8%
- chest wall respiratory movement amplitude reduced by (English bulldogs [6]; two dogs): 59.9%
- upper airway parameters during expiration (English bulldogs [6]; two dogs): no significant changes
- mean SaO2 after administration (English bulldogs [6]; two dogs, before 92.8±1.8): 86.2±4.7%
- airway CSA during both stages of inspiration (English bulldogs [6]; two dogs, individual ANOVAs p<0.01): significant reduction
- DIA peak amplitude as percentage of the baseline value (English bulldogs [4]; 0.25 mg/kg i.v.): 85.76±3.30%
- DIA peak amplitude, mean (English bulldogs [4]; 0.25 mg/kg i.v., mean±SE, six dogs, baseline 17.63±2.79): 15.03±2.45 arbitrary units
- percent suppression of DIA activity (English bulldogs [4]; 0.25 mg/kg i.v., mean±SE, quiet waking, dogs with GH data): 17.0±3.6%
- DIA peak amplitude as percentage of the baseline value (English bulldogs [4]; 0.50 mg/kg i.v.): 95.22±5.81%
- DIA peak amplitude, mean (English bulldogs [4]; [8]): 16.12±2.30 arbitrary units
- DIA peak amplitude as percentage of the baseline value (English bulldogs [4]; 0.75 mg/kg i.v. cumulative): 87.33±5.18%
- DIA peak amplitude, mean (English bulldogs [4]; 0.75 mg/kg i.v. cumulative, mean±SE, six dogs, baseline 17.63±2.79): 14.98±2.06 arbitrary units
- mean SaO2 (English bulldogs [5]; 0.25 mg/kg i.v., baseline 92.1±0.6): 88.5±0.8%
- mean SaO2 (English bulldogs [5]; [9]): 87.6±1.2%
- mean SaO2 (English bulldogs [5]; 0.75 mg/kg i.v. cumulative, baseline 92.1±0.6): 88.6±0.5%
